# Measured values from patent publication US4241051A, “Calcitonin” (priority 1977, dated 1980).
# System: bPTH-stimulated resorption
# Assay: Calcitonin ear drops in 45Ca-labelled guinea pigs; 45Ca release from explanted ossicles after bPTH stimulation
# Assay type: in vivo
# Settings: for antagonism by calcitonin of the bPTH-stimulated resorption (45Ca release into bathing medium): 40 hour reading
# Experimental: A large dose of radio calcium (400 μCi of ^45 Ca) is administered intravenously to each of eight guinea pigs to label their skeletons. On the third, fourth and fifth days after administration of the radiocalcium each of the guinea pigs receives ear drops containing a solution of synthetic salmon calcitonin (Armour Pharmaceutical Co.) dissolved in dimethylsulphoxide (0.1 ml of solution containing 25μg of calcitonin). Four of the animals receive calcitonin to the right ear and four to the left ear, 0.1 ml of dimethylsulphoxide being given to the other ear in each case as a control.
# One hour before sacrifice on the fifth day three animals from each group of four are treated intravenously with 500 MRC units of bovine parathyroid hormone (bPTH; 2000U/mg) in diluted plasma to stimulate bone resorption, the remaining animal in each group receiving diluted plasma only as a control. After sacrifice in alternation by ether anaesthesia, the ossicles of each ear of each animal are removed by the opening the temporal bone from its lower surface, remote from the external ear to which calcitonin has been applied. They are explanted onto a filter disc (Millipore HA) in a tissue culture dish containing 1 ml of the Fitton-Jackson modification of BGJ (Gibco-Biocult Ltd) with added ascorbic acid (150 μg/ml), streptomycin (5 mg/100 ml) and penicillin (5000U/100 ml), gassed with 93% air, 7% carbon dioxide. The bathing medium is withdrawn from each dish after 20, 40 and 60 hours incubation in an airtight container at 37° C. and is replaced with freshly gassed medium. After addition to 4 ml aliquots of scintillator (Packard Instagel) the samples are subjected to liquid scintillation spectrometry (Packard 2425 set to the ^14 C channel).
# In a variation of the procedure described above, the calcitonin is administered in 0.1% w/v aqueous sodium dioctyl sulphosuccinate rather than in dimethyl sulphoxide in two separate experiments, the whole of the ossicles being explanted as described above in the first case and only the stapes being explanted in the second. In these two experiments some variation is made in the radiolabelling procedure, only 200 μCi of ^45 Ca being given in the first case but intraperitoneally rather than intravenously to facilitate the labelling of bone and 400 μCi of ^45 Ca being given in the second case, also intraperitoneally, but with omission of the methyl red from the BGJ culture medium as this causes considerable quenching.
# A group of twenty-four guinea pigs is treated as described in Example 1 to effect labelling of their skeletons, a dose of 400 μCi of ^45 Ca being given intraperitoneally. The animals are then divided into three groups which are treated as described in Example 1 with 0.1 ml of a solution of concentration 27.8 μg/ml, 83.3 μg/ml or 250 μg/ml of synthetic salmon calcitonin in 0.1% w/v aqueous sodium dioctyl sulphosuccinate. The subsequent treatment of the animals follows that of Example 1, the methyl red being omitted from the BGJ culture medium.
substance,measurement,setting,value
synthetic salmon calcitonin,level of effect on 45Ca release from explanted ossicles,"Example 2, 0.1 ml ear drops of 27.8 μg/ml in 0.1% w/v aqueous sodium dioctyl sulphosuccinate",little effect
same,level of effect on 45Ca release from explanted ossicles,"Example 2, 0.1 ml ear drops of 83.3 μg/ml in 0.1% w/v aqueous sodium dioctyl sulphosuccinate, compared with 250 μg/ml",very similar level of effect
same,level of effect on 45Ca release from explanted ossicles,"Example 2, 0.1 ml ear drops of 250 μg/ml in 0.1% w/v aqueous sodium dioctyl sulphosuccinate, compared with 83.3 μg/ml",very similar level of effect
same,duration of effect after application in vivo,"Example 2, bathing medium examined after 20, 40 and 60 hours of culture",effect of extended duration
same,antagonism by calcitonin of the bPTH-stimulated resorption (45Ca release into bathing medium),"ear drops 0.1 ml with 25 μg calcitonin in dimethylsulphoxide, days 3-5, whole of the ossicles explanted, p<0.01",highly significant
same,antagonism by calcitonin of the bPTH-stimulated resorption (45Ca release into bathing medium),"ear drops with calcitonin in 0.1% w/v aqueous sodium dioctyl sulphosuccinate, only the stapes explanted, p<0.005",highly significant
same,antagonism by calcitonin of the bPTH-stimulated resorption (45Ca release into bathing medium),"ear drops with calcitonin in 0.1% w/v aqueous sodium dioctyl sulphosuccinate, whole of the ossicles explanted, p<0.01",highly significant
same,concentration level generally required to achieve an adequate effect,"topical composition, calcitonin with a potency of about 4500 International units per mg",greater than 25 micrograms per ml
